Reference: US20260083704A1, “LXR MODULATORS WITH BICYCLIC CORE MOIETY FOR TREATING DYSLIPIDEMIAS” (OrsoBio, Inc., priority 2022, published 2026)

What was measured:
[1] = Short term HFD mouse model: plasma and liver exposure; type: in vivo; conditions: HFD mice, 4 h after final dose
Procedure: The in vivo transcriptional regulation of several LXR target genes by LXR modulators was assessed in mice.
For this, C57BL/6J were purchased from Elevage Janvier (Rennes, France) at the age of 8 weeks. After an acclimation period of two weeks, animals were prefed on a high fat diet (HFD) (Ssniff Spezialdiäten GmbH, Germany, Surwit EF D12330 mod, Cat. No. E15771-34), with 60 kcal % from fat plus 1% (w/w) extra cholesterol (Sigma-Aldrich, St. Louis, MO) for 5 days. Animals were maintained on this diet during treatment with LXR modulators. The test compounds were formulated in 0.5% hydroxypropylmethylcellulose (HPMC) and administered in three doses (from 1.5 to 20 mg/kg each) by oral gavage according to the following schedule: on day one, animals received treatment in the morning and the evening (ca. 17:00), on day two animals received the final treatment in the morning after a 4 h fast and were sacrificed 4 h thereafter. Animal work was conducted according to the national guidelines for animal care in Germany.
Upon termination, liver was collected, dipped in ice cold PBS for 30 seconds and cut into appropriate pieces. Pieces were snap frozen in liquid nitrogen and stored at −80° C. For the clinical chemistry analysis from plasma, alanine aminotransferase (ALT, IU/mL), cholesterol (CHOL, mg/dL) and triglycerides (TG, mg/dL) were determined using a fully-automated bench top analyzer (Respons®910, DiaSys Greiner GmbH, Flacht, Germany) with system kits provided by the manufacturer.

LXRβ = target: T1, LXRβ (Homo sapiens, UniProt P55055); test: LXR Gal4 reporter transient transfection assay (mammalian two-hybrid, HEK293), LXRβ; type: cell-based; set-up: LXRβ (amino acids 156-461); expressed in transfected cells; host or cells: HEK293; conditions: full length (FL) LXRβ, HEK293; read-out: FL-M2H Gal4β
T1 sequence (P55055 1-460): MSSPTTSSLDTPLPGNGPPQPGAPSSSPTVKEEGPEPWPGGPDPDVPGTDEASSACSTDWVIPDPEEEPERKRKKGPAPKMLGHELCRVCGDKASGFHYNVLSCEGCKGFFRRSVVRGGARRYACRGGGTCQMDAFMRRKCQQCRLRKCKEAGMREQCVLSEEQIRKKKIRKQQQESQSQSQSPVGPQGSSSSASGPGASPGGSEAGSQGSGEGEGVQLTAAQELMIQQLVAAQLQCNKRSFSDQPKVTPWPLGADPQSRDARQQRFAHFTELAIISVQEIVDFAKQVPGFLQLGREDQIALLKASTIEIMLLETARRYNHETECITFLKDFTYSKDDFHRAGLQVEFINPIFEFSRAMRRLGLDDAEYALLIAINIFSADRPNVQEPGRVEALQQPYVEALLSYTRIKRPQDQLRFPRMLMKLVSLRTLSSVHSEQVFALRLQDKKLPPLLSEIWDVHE
In short: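 HEK293 cells transiently co-transfected with full-length or LBD LXRα/LXRβ fused to NFkB activation domain, GAL4-DBD-fused SRC1 or NCoR cofactor domain, GAL4-responsive firefly luciferase reporter and Renilla control. Compound added 4 h post-transfection (≤0.2% DMSO), incubated 16 h; firefly and Renilla luminescence read sequentially.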

[2] = three oral doses of 20 mg/kg over two days
[3] = three oral doses of 10 mg/kg over two days

| Compound | liver exposure 4 h [1, 2] | liver/plasma ratio 4 h [1, 2] | plasma exposure 4 h [1, 2] | EC50 (LXRβ) [nM] | liver exposure 4 h [1, 3] | liver/plasma ratio 4 h [1, 3] | plasma exposure 4 h [1, 3] |
| --- | --- | --- | --- | --- | --- | --- | --- |
| N#Cc1ccccc1-c1c(-c2cccc(-c3ccc(C(=O)O)cc3Cl)c2)n(S(=O)(=O)c2ccc(C(F)F)cc2)c2cnccc12 [11/49] | C (1 μM to ≤10 μM) | D (>100) | D (<100 nM) | < 100 | – | – | – |
| N#Cc1cccc(C#N)c1-c1c(-c2cccc([C@H]3CC[C@H](C(=O)O)CC3)c2)n(S(=O)(=O)c2ccc(C(F)F)cc2)c2ccc(F)cc12 [11/62] | – | – | – | < 100 | C (1 μM to ≤10 μM) | B (5 to ≤30) | C (100 nM to <300 nM) |
| O=C(O)c1ccc(-c2cccc(-c3c(-c4ncccc4C(F)(F)F)c4cc(F)ccc4n3S(=O)(=O)c3ccc(C(F)F)cc3)c2)c(Cl)c1 [11/23] | C (1 μM to ≤10 μM) | B (5 to ≤30) | C (100 nM to <300 nM) | < 100 | – | – | – |
| N#Cc1cccc(C#N)c1-c1c(-c2cccc(-c3ccc(C(=O)O)cc3F)c2)n(S(=O)(=O)c2ccc(C(F)F)cc2)c2ccc(F)cc12 [11/51] | – | – | – | < 100 | C (1 μM to ≤10 μM) | C (30 to ≤100) | D (<100 nM) |
| COc1c(C(=O)O)ccc(-c2cccc(-c3c(-c4ccccc4C#N)c4cc(F)ccc4n3S(=O)(=O)c3ccc(C(F)F)cc3)c2)c1Cl [11/27] | C (1 μM to ≤10 μM) | C (30 to ≤100) | D (<100 nM) | < 100 | – | – | – |
| N#Cc1cccc(C#N)c1-c1c(-c2cccc(-c3ccc(C(=O)O)cc3Cl)c2)n(S(=O)(=O)c2ccc(C(F)F)cc2)c2ccc(F)cc12 [11/12] | C (1 μM to ≤10 μM) | C (30 to ≤100) | D (<100 nM) | < 100 | – | – | – |
| N#Cc1cccc(C#N)c1-c1c(-c2cccc(-c3c(F)cc(C(=O)O)cc3F)c2)n(S(=O)(=O)c2ccc(C(F)F)cc2)c2ccc(F)cc12 [11/53] | – | – | – | < 100 | C (1 μM to ≤10 μM) | C (30 to ≤100) | D (<100 nM) |
| N#Cc1nccnc1-c1c(-c2cccc(-c3cc(F)c(C(=O)O)cc3Cl)c2)n(S(=O)(=O)c2ccc(C(F)F)cc2)c2ccc(F)cc12 [11/11] | D (>10 μM) | D (>100) | D (<100 nM) | < 100 | – | – | – |
| N#Cc1cccc(C#N)c1-c1c(-c2cccc(-c3ccc(C(=O)O)cc3Cl)c2)n(S(=O)(=O)c2ccc(C(F)(F)F)nc2)c2ccc(F)cc12 [11/37] | – | – | – | < 100 | C (1 μM to ≤10 μM) | C (30 to ≤100) | D (<100 nM) |
| O=C(O)c1ccc(-c2cccc(-c3c(-c4ccccc4C4COC4)c4cc(F)ccc4n3S(=O)(=O)c3ccc(C(F)F)cc3)c2)c(Cl)c1 [3/59] | C (1 μM to ≤10 μM) | B (5 to ≤30) | C (100 nM to <300 nM) | < 100 | – | – | – |
| CS(=O)(=O)NC(=O)c1ccc(-c2cccc(-c3c(-c4c(C#N)cccc4C#N)c4cc(F)ccc4n3S(=O)(=O)c3ccc(C(F)F)cc3)c2)c(Cl)c1 [32/5] | – | – | – | < 100 | B (300 nM to ≤1 μM) | B (5 to ≤30) | D (<100 nM) |
| N#Cc1cccc(C#N)c1-c1c(-c2cccc(-c3cc(F)c(C(=O)O)cc3Cl)c2)n(S(=O)(=O)c2ccc(C(F)F)cc2)c2ccc(F)cc12 [11/65] | – | – | – | < 100 | C (1 μM to ≤10 μM) | C (30 to ≤100) | D (<100 nM) |
| Cc1ccc(S(=O)(=O)n2c(-c3cccc(C45CCC(C(=O)O)(CC4)CC5)c3)c(-c3ccsc3C#N)c3cc(F)ccc32)cc1 [3/64] | D (>10 μM) | D (>100) | C (100 nM to <300 nM) | < 100 | – | – | – |
| N#Cc1cccc(C#N)c1-c1c(-c2cccc(-c3ccc(C(=O)O)cc3Cl)c2)n(S(=O)(=O)C2CCC(F)(F)CC2)c2ccc(F)cc12 [11/63] | – | – | – | < 100 | C (1 μM to ≤10 μM) | B (5 to ≤30) | D (<100 nM) |
| N#Cc1cccc(C#N)c1-c1c(-c2cccc(-c3ccc(C(=O)NCC(=O)O)cc3Cl)c2)n(S(=O)(=O)c2ccc(C(F)F)cc2)c2ccc(F)cc12 [Compound 21/3] | – | – | – | < 100 | C (1 μM to ≤10 μM) | D (>100) | D (<100 nM) |
| O=C(O)c1ccc(-c2cccc(-c3c(-c4c(Cl)cccc4Cl)c4cc(F)ccc4n3S(=O)(=O)c3ccc(C(F)F)cc3)c2)c(Cl)c1 [11/13] | C (1 μM to ≤10 μM) | A (<5) | A (>1 μM) | < 100 | – | – | – |
| CC(=O)NS(=O)(=O)c1ccc(-c2cccc(-c3c(-c4c(C#N)cccc4C#N)c4cc(F)ccc4n3S(=O)(=O)c3ccc(C(F)F)cc3)c2)c(Cl)c1 [8/8] | – | – | – | < 100 | B (300 nM to ≤1 μM) | B (5 to ≤30) | C (100 nM to <300 nM) |
| N#Cc1sccc1-c1c(-c2cccc(-c3ccc(C(=O)O)cc3Cl)c2)n(S(=O)(=O)c2ccc(C(F)(F)F)nc2)c2ccc(F)cc12 [11/16] | C (1 μM to ≤10 μM) | B (5 to ≤30) | C (100 nM to <300 nM) | < 100 | – | – | – |
| N#Cc1cccc(C#N)c1-c1c(-c2cccc(-c3ccc(C(=O)NCCS(=O)(=O)O)cc3Cl)c2)n(S(=O)(=O)c2ccc(C(F)F)cc2)c2ccc(F)cc12 [10/1] | – | – | – | < 100 | B (300 nM to ≤1 μM) | C (30 to ≤100) | D (<100 nM) |
| N#Cc1cccnc1-c1c(-c2cccc(-c3ccc(C(=O)O)cc3Cl)c2)n(S(=O)(=O)c2ccc(C(F)F)cc2)c2ccc(F)cc12 [11/26] | – | – | – | < 100 | C (1 μM to ≤10 μM) | C (30 to ≤100) | C (100 nM to <300 nM) |
| N#Cc1cccc(C#N)c1-c1c(-c2cccc(-c3c(F)cc(CC(=O)O)cc3F)c2)n(S(=O)(=O)c2ccc(C(F)F)cc2)c2ccc(F)cc12 [3/73] | – | – | – | < 100 | B (300 nM to ≤1 μM) | C (30 to ≤100) | D (<100 nM) |
| N#Cc1sccc1-c1c(-c2cccc(-c3ccc(C(=O)O)cc3Cl)c2)n(S(=O)(=O)c2ccc(C(F)F)cc2)c2ccc(F)cc12 [11/17] | D (>10 μM) | C (30 to ≤100) | C (100 nM to <300 nM) | < 100 | – | – | – |
| CN(CCS(=O)(=O)O)C(=O)c1ccc(-c2cccc(-c3c(-c4c(C#N)cccc4C#N)c4cc(F)ccc4n3S(=O)(=O)c3ccc(C(F)F)cc3)c2)c(Cl)c1 [10/2] | – | – | – | < 100 | D (>10 μM) | B (5 to ≤30) | D (<100 nM) |
| N#Cc1ccccc1-c1c(-c2cccc(-c3ccc(C(=O)O)cc3Cl)c2)n(S(=O)(=O)c2ccc(C(F)F)cc2)c2ccc(F)cc12 [11/33] | C (1 μM to ≤10 μM) | C (30 to ≤100) | C (100 nM to <300 nM) | < 100 | – | – | – |
